Source: patent US20230149407A1, “Methods of Treating Coronavirus Disease 2019” (priority 2020, published 2023)
Entries after “also recorded” stand apart in the source; their conditions may differ.

What was measured:
[1] = tested on: hsCRP; test: hsCRP in healthy adults; format: in vivo, human
[2] = tested on: human bronchial epithelial cells; test: chemokine production from human bronchial epithelial cells; format: cell-based
[3] = tested on: inflammatory monocytes; test: levels of inflammatory monocytes; design: species or system human; conditions: in vivo
[4] = renal excretion of PF-06650833; conditions: in vivo
[5] = tested on: collagen-induced arthritis; test: rat collagen-induced arthritis model; format: in vivo
[6] = tested on: imiquimod (a TLR7 agonist)-induced skin inflammation; test: 5-day murine model of imiquimod-induced skin inflammation; format: in vivo; conditions: 5-day murine imiquimod model
[7] = tested on: C-reactive protein (CRP); test: expected reduction in CRP (exposure response model); format: in vivo, human
[8] = tested on: LPS-induced TNFα; test: acute model of endotoxin-induced inflammation in rats; format: in vivo, rat; conditions: administered orally
[9] = tested on: moderately to severely active RA; test: 12-week study in patients with moderately to severely active RA; format: in vivo, human; conditions: doses of 200 and 400 mg as modified release (MR) tablets
[10] = tested on: blood transcriptional programs for type I interferons and IL-6; test: blood transcriptional programs in healthy volunteers and RA patients; format: in vivo, human
[11] = tested on: IFNα, IFNβ, IFNγ, TNFα, IL-1, IL-2, IL4, IL-6, IL-7, IL-9, IL-10, IL-12, IL13, IL-15, IL-21, IL-23, and IL-27; conditions: cited from earlier work
[12] = tested on: IL-6; test: expected suppression of IL-6 at clinical tofacitinib doses; format: in vivo, human
[13] = tested on: IL-6/STAT3 signaling; test: in-vitro IL-6/STAT3 signaling; format: cell-based; conditions: both at 5 and 10 mg

| SMILES | levels of hsCRP [1] | chemokine production, IL-1β-stimulated release of CXCL8 and IL-6 [2] | levels of inflammatory monocytes [3] | renal excretion [4] | hind paw swelling [5] | ear swelling [6] | reduction in CRP ([7]; 200 mg IR suspension Q6H) | reduction in CRP ([7]; 400 mg MR tablets QD (or 200 mg IR suspension Q6H)) | LPS-induced TNFα [8] | efficacy in 12-week study in RA patients [9] | blood transcriptional programs for type I interferons and IL-6 [10] | levels of IFNα, IFNβ, IFNγ, TNFα, IL-1, IL-2, IL4, IL-6, IL-7, IL-9, IL-10, IL-12, IL13, IL-15, IL-21, IL-23, and IL-27 [11] | predicted suppression of IL-6 ([12]; 5 mg BID dose) | suppression of IL-6 ([12]; 10 mg BID dose, may be expected) | IL-6/STAT3 signaling [13] |
| --- | --- | --- | --- | --- | --- | --- | --- | --- | --- | --- | --- | --- | --- | --- | --- |
| CC[C@@H]1[C@H](F)C(=O)N[C@@H]1COc1nccc2cc(C(N)=O)c(OC)cc12 [PF-06650833, 1-(((2S,3S,4S)-3-Ethyl-4-fluoro-5-oxopyrrolidin-2-yl)methoxy)-7-methoxyisoquinoline-6-carboxamide] | suppression of CRP; also recorded: dose-dependently reduced | reduces | reduces levels | low | significantly reduced | inhibit ear swelling in a dose-dependent manner | 50-60% | 50-60% | inhibit LPS-induced TNFα in a dose-dependent manner | demonstrated efficacy | dose-dependently inhibits |  |  |  |  |
| C[C@@H]1CCN(C(=O)CC#N)C[C@@H]1N(C)c1ncnc2[nH]ccc12 [tofacitinib, 3-((3R,4R)-4-Methyl-3-(methyl(7H-pyrrolo[2,3-d]pyrimidin-4-yl)amino)piperidin-1-yl)-3-oxopropanenitrile] |  |  |  |  |  |  |  |  |  |  |  | reduces levels | approximately 60% | approximately 80% | inhibits |
